The target of assay [1] is T1, Bromodomain-containing protein 4 (Homo sapiens, UniProt O60885). Description: Induction of BRD4 degradation in human KBM-7 cells at 5 uM incubated for 5 hrs by Western blotting analysis. The assay is classed as cell-based. For orientation: In western blotting, separated proteins are transferred to a membrane and probed.
The target of assay [2] is Bromodomain-containing protein 3 (Homo sapiens) (UniProt Q15059). Description: Induction of BRD3 degradation in human KBM-7 cells at 5 uM incubated for 5 hrs by Western blotting analysis. The assay is classed as cell-based.
Bromodomain-containing protein 3 (Homo sapiens), sequence (Q15059 2-726 limits assumed): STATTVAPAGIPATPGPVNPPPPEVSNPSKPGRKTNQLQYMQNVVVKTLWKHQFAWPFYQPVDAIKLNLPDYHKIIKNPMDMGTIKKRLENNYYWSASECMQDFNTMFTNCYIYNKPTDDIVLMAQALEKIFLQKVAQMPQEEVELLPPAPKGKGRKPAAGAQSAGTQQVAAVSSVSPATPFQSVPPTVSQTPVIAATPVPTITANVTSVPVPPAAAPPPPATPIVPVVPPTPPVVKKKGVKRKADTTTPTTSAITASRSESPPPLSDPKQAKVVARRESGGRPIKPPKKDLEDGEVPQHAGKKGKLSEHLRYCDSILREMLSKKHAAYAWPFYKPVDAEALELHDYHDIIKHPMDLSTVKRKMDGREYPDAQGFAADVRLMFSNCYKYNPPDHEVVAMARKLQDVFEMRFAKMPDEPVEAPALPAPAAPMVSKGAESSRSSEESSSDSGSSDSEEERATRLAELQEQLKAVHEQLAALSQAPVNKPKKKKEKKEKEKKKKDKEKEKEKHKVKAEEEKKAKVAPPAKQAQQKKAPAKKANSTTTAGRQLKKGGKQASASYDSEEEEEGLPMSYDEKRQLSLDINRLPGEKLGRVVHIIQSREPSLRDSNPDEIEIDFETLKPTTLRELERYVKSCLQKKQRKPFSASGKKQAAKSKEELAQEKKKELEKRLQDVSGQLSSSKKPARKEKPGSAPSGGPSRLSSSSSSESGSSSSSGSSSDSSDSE
The subject of assay [3] is KBM-7. The experiment in a line: Downregulation of c-Myc expression in human KBM-7 cells at 5 uM after 5 hrs by Western blotting analysis. The assay is classed as functional, cell-based.
Assay [4] has as its target T1, Bromodomain-containing protein 4. The experiment in a line: Induction of nLuc-tagged BRD4S degradation in human KBM-7 cells by nanoluciferase based assay. The assay is classed as cell-based. The conditions noted are these: time 2-24 hrs, TDE = time-dependent effect.
Assay [5] shares this target. The experiment in a line: Induction of nLuc-tagged BRD4S degradation in human KBM-7 cells incubated for 2 to 24 hrs by nanoluciferase based assay. The settings on record: for Activity: time 2-24 hrs. It counts as cell-based.
The target is the same in assay [6]. The experiment in a line: Induction of BRD4S-BFP in DCAF11 knockout human K-BM7 cells transduced with sgRNA-resistant DCAF11 vector containing Cys-to-Ala mutant at 5 uM incubated for 6 hrs by flow cytometry analysis. It counts as cell-based. The conditions noted are these: KBM-7.
Assay [7] shares this target. Description: Induction of HA-tagged BRD4S degradation in human KBM-7 cells at 5 uM pretreated with carfilzomib for 1 hr followed by compound addition and measured after 6 hrs by Western blotting analysis. The assay is classed as cell-based.
Assay [8] has as its target Bromodomain-containing protein 3 (Homo sapiens) (UniProt Q15059). The experiment in a line: Induction of BRD3 degradation in human KBM-7 cells at 5 uM pretreated with bortezomib for 1 hr followed by compound addition and measured after 6 hrs by Western blotting analysis. The assay is classed as cell-based.
Assay [9] concerns the target T1, Bromodomain-containing protein 4. The experiment in a line: Induction of HA-tagged BRD4S degradation in human KBM-7 cells at 5 uM pretreated with TAK-243 for 1 hr followed by compound addition and measured after 6 hrs by Western blotting analysis. The assay is classed as cell-based.
The target in assay [10] is Bromodomain-containing protein 3 (Homo sapiens) (UniProt Q15059). Description: Induction of BRD3 degradation in human KBM-7 cells at 5 uM pretreated with […] binder 12 for 1 hr followed by compound addition and measured after 5 hrs by Western blotting analysis. It counts as cell-based.
The test system of assay [11] is KBM-7. Description: Downregulation of c-MYC expression in DCAF11 knockout human KBM-7 cells at 5 uM after 6 hrs by Western blotting analysis. The assay is classed as functional, cell-based.
The target in assay [12] is T1, Bromodomain-containing protein 4. The experiment in a line: Induction of BRD4 degradation in DCAF11 knockout human KBM-7 cells at 5 uM after 6 hrs by Western blotting analysis. It counts as cell-based.
Assay [13] has as its target Bromodomain-containing protein 3 (Homo sapiens) (UniProt Q15059). Description: Induction of BRD3 degradation in human KBM-7 cells at 5 uM pretreated with TAK-243 for 1 hr followed by compound addition and measured after 6 hrs by Western blotting analysis. The assay is classed as cell-based.
For assay [14], the target named is Bromodomain-containing protein 2 (Homo sapiens) (UniProt P25440). The experiment in a line: Induction of BRD2 degradation in human KBM-7 cells at 5 uM pretreated with DCAF11 binder 12 for 1 hr followed by compound addition and measured after 5 hrs by Western blotting analysis. It counts as cell-based.
Bromodomain-containing protein 2 (Homo sapiens), sequence (P25440 whole entry, looked up): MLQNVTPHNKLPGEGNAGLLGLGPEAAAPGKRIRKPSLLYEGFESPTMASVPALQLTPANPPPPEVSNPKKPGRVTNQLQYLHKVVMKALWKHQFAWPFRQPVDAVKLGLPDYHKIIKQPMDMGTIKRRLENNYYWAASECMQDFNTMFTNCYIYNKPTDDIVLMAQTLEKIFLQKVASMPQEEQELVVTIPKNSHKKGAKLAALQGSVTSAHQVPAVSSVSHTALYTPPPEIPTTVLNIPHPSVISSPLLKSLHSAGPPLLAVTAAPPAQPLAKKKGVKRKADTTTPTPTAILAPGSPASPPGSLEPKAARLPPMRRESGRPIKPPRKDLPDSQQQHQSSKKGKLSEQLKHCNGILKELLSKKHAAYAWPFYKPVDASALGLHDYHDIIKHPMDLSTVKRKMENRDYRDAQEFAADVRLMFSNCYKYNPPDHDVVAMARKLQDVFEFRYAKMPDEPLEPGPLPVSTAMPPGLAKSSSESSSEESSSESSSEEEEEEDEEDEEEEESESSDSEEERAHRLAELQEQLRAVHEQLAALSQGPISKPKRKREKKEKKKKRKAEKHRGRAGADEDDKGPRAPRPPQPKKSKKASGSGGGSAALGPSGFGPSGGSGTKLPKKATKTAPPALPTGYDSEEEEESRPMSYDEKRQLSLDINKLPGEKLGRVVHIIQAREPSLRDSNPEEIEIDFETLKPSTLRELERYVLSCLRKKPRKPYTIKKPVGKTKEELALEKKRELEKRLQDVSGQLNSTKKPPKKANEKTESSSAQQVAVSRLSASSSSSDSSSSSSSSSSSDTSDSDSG
The target of assay [15] is Bromodomain-containing protein 3 (Homo sapiens) (UniProt Q15059). The experiment in a line: Induction of BRD3 degradation in DCAF11 knockout human KBM-7 cells at 5 uM after 6 hrs by Western blotting analysis. It counts as cell-based.
Assay [16] shares this target. Description: Induction of BRD3 degradation in human KBM-7 cells at 5 uM pretreated with […] binder 11 for 1 hr followed by compound addition and measured after 5 hrs by Western blotting analysis. It counts as cell-based.
Assay [17] has as its target T1, Bromodomain-containing protein 4. The experiment in a line: Induction of BRD4S-BFP in DCAF11 knockout human K-BM7 cells transduced with sgRNA-resistant wild-type DCAF11 at 5 uM incubated for 6 hrs by flow cytometry analysis. The assay is classed as cell-based. The conditions noted are these: KBM-7. A general note: In flow cytometry, cells or beads pass a laser one at a time.

The target is the same in assay [18]. Description: Induction of BRD4 degradation in human KBM-7 cells at 5 uM pretreated with […] binder 12 for 1 hr followed by compound addition and measured after 5 hrs by Western blotting analysis. It counts as cell-based.
Assay [19] has the same target. Description: Induction of HA-tagged BRD4S degradation in human KBM-7 cells at 5 uM after 5 to 20 hrs by Western blotting analysis. The assay is classed as cell-based. The settings on record: time 5-20 hrs.
Assay [20] shares this target. Description: Induction of HA-tagged BRD4S degradation in human KBM-7 cells at 5 uM pretreated with bortezomib for 1 hr followed by compound addition and measured after 6 hrs by Western blotting analysis. It counts as cell-based.
The target of assay [21] is Bromodomain-containing protein 2 (Homo sapiens) (UniProt P25440). The experiment in a line: Induction of BRD2 degradation in human KBM-7 cells at 5 uM pretreated with […] binder 11 for 1 hr followed by compound addition and measured after 5 hrs by Western blotting analysis. The assay is classed as cell-based.
Assay [22] addresses Bromodomain-containing protein 3 (Homo sapiens) (UniProt Q15059). The experiment in a line: Induction of BRD3 degradation in human KBM-7 cells at 5 uM pretreated with carfilzomib for 1 hr followed by compound addition and measured after 6 hrs by Western blotting analysis. The assay is classed as cell-based.
For assay [23], the target named is T1, Bromodomain-containing protein 4. The experiment in a line: Induction of BRD4 degradation in human KBM-7 cells at 5 uM pretreated with […] binder 11 for 1 hr followed by compound addition and measured after 5 hrs by Western blotting analysis. The assay is classed as cell-based.

The source made the active and inactive calls. No cut-off for these calls is given here.

Turning to `Cc1sc2c(c1C)C(c1ccc(Cl)cc1)=N[C@@H](CC(=O)NCCCCCCNC(=O)COc1ccc(CNC(=O)CCc3ccc4ccccc4c3)cc1)c1nnc(C)n1-2`, the outcome in assay [1] and in [2] was Active. The result in the assay on KBM-7 [3] was inactive.

As to `Cc1sc2c(c1C)C(c1ccc(Cl)cc1)=N[C@@H](CC(=O)NCCOCCOCCNC(=O)COc1ccc(CNC(=O)/C(C#N)=C/c3ccc4ccccc4c3)cc1)c1nnc(C)n1-2`, the Activity entry in assay [4] is “Tde”; in assay [5], “Dose-Dependent Effect”. Besides, in assay [5], it took 396 nM to reach half-maximal degradation (DC50).

Turning to `Cc1sc2c(c1C)C(c1ccc(Cl)cc1)=N[C@@H](CC(=O)NCCCCCCNC(=O)COc1ccc(CNC(=O)/C=C/c3ccc4ccccc4c3)cc1)c1nnc(C)n1-2`, the result in assay [1] and in assay [2] was Active. Also, the result (in assay [5]; in the assay with KBM-7 [3]) was inactive.

On to `Cc1sc2c(c1C)C(c1ccc(Cl)cc1)=N[C@@H](CC(=O)NCCCCCCNC(=O)COc1ccc(CNC(=O)/C(C#N)=C/c3ccc4ccccc4c3)cc1)c1nnc(C)n1-2`, for which the result in [6], in assay [7], in assay [8], in [9], in [10] and in assay [12] was inactive. In addition, the result in assay [13], in [14], in [15], in assay [16], in [18] and in [20] was inactive. For the same molecule, the result in assay [21], in [22] and in [23] was inactive. Moreover, the result (in assay [1]; in [2]; with KBM-7 [11]; in [17]; in assay [19]; in the assay on KBM-7 [3]) was Active. The Activity result in assay [4] is “Tde”; in [5], “Dose-Dependent Effect”. Further, it took 305 nM to reach half-maximal degradation in assay [5] (DC50).

The record behind these values is ChEMBL document CHEMBL5576050, “Discovery of a DCAF11-dependent cyanoacrylamide-containing covalent degrader of BET-proteins” (Bioorg Med Chem Lett, 2024).
